From patent US11213548B2, “Modulatable switch for selection of donor modified cells” (CSL Behring Gene Therapy, Inc., priority 2017, dated 2022)

Key:
Type in all cases: cell-based
K562 cells [1] = assay: Negative selection with MTX of transduced or transfected K562 cells; details: 0.3 uM MTX, day 0 to day 14
Method: Transduced or transfected K562 cells (such as those from Example 6) were cultured with or without MTX from day 0 to day 14. The medium was refreshed every 3 to 4 days. GFP was analyzed on flow machine and InDel % was analyzed by T7E1 assay. […] FIG. 11B illustrates that the transfected K562 cells were eliminated under treatment with 0.3 uM of MTX at a faster pace as compared with the HPRT-KD population.

CEM cells [2] = assay: Negative selection with MTX or MPA of transduced or transfected CEM cells; details: day 0 to day 14; for GFP population of transduced cells under treatment: CEM experiment (K562 in the source), steady for untreated group
K562 cells [3] = assay: Negative selection with MTX for K562 cells transduced with different lentiviral vector designs
Method: K562 cells were transduced with either TL20cw-GFP virus soup at dilution factor of 16, TL2Ocw-Ubc/GFP-7SK/sh734 (one sequentially encoding GFP and a shRNA designed to knockdown HPRT) virus soup at dilution factor of 16 and TL2Ocw-7SK/sh734-UBC/GFP (one sequentially encoding a shRNA designed to knockdown HPRT and GFP) virus soup at dilution factor of 16, respectively (see FIG. 13). All cells were cultured with medium containing 0.3 uM of MTX 3 days later. Also shown in FIG. 13 are K562 cells which were transduced by TL20cw-7SK/sh734-UBC/GFP (one encoding a nucleic acid encoding a shRNA designed to knockdown HPRT) virus soup at dilution factor of 1024 one month earlier and where GFP-sh734-transduced cells were positively selected with 300 nM of 6TG 6-TG was selection during that time to reach more than 90% of GFP+ population. […] The relative sh734 expression per VCN for sh734-GFP-transduced cells and GFP-sh73-transduced cells were measured.

CEM cells [4] = assay: Positive selection with 6TG of HPRT knockdown / knockout CEM cells (ex vivo)
Method: CEM cells were transduced with a vector including a nucleic acid sequence designed to knockdown HPRT and a nucleic acid sequence encoding the green fluorescent protein or transfected with a nanocapsule including CRISPR/Cas9 and a sgRNA to HPRT at day 0. 6-TG was added into the medium from day 3 to day 17. The medium was refreshed every 3 to 4 days. GFP as analyzed on flow machine and InDel % is analyzed by T7E1 assay. FIG. 10A illustrates that the GFP+ population of transduced […] cells increased from day 3 to day 17 under treatment of 6TG while GFP+ population was almost steady without 6-TG. […] It should be noted that 6TG selection process occurred faster on HPRT knockout cells rather than HPRT knockdown cells (MOI=1) at the same concentration of 6TG from day 3 to day 17.

K562 cells [5] = assay: Positive selection with 6TG of HPRT knockdown / knockout K562 cells (ex vivo)
Method: K562 cells were transduced with a vector including a nucleic acid sequence designed to knockdown HPRT and a nucleic acid sequence encoding the green fluorescent protein (GFP) (MOI=1/2/5); or were transfected with a nanocapsule including CRISPR/Cas9 and a sgRNA to HPRT (100 ng/5×10^4 cells) at day zero (0). 6-TG was added into the medium from day 3 through day 14. The medium was refreshed every 3 to 4 days. GFP was analyzed on flow machine and InDel % as analyzed with T7E1 assay. FIG. 9A illustrates that the GFP+ population of transduced K562 cells increased from day 3 to day 14 under treatment of 6TG; while the GFP+ population was almost steady without 6-TG treatment. […] It should be noted that 6TG selection process occurred much faster on HPRT knockout cells as compared with the HPRT knockdown cells (MOI=1) at the same concentration of 300 nM of 6TG from day 3 to day 14. The difference between knockdown and knockout could be explained by some level of residual HPRT by the RNAi knockdown approach as compared with the full elimination of HPRT by the knockout approach. Therefore, HPRT-knockout cells were believed to have a much higher tolerance against 6TG and are believed to grow much faster at higher dosages of 6TG (900 nM) compared with HPRT-knockdown cells.

Compound: CN(Cc1cnc2nc(N)nc(N)c2n1)c1ccc(C(=O)N[C@@H](CCC(=O)O)C(=O)O)cc1 [MTX, methotrexate]
- GFP population of transduced K562 cells under treatment of MTX (K562 cells [1]; HPRT knockdown, steady without MTX): decreased
- Transfected (HPRT knockout) K562 cells under treatment with MTX (K562 cells [1]; faster pace than HPRT-KD population): eliminated
- GFP population of transduced cells under treatment (CEM cells [2]; 0.3 uM MTX): decreased
- HPRT knockout population of CEM cells under treatment (CEM cells [2]; 0.3 uM MTX): eliminated at a faster pace
- Deselection of transduced K562 cells by methotrexate (K562 cells [3]; 0.3 uM MTX, sh734-high-expression versus sh734-low-expression lentiviral vector): could only deselect cells transduced with sh734-high-expression lentiviral vector

Compound: Nc1nc2nc[nH]c2c(=S)[nH]1 [6TG, 6-thioguanine]
- Speed of selection of HPRT knockout CEM cells, higher dosage versus 300/600 nM of 6TG (CEM cells [4]; 900 nM 6TG compared with 300/600 nM, day 3 to 17): faster selection
- GFP+ population of transduced cells under treatment of 6TG (CEM cells [4]; CEM experiment (K562 in the source), HPRT knockdown vector with GFP, 6-TG day 3 to day 17, almost steady without 6-TG): increased
- Speed of 6TG selection on HPRT knockout cells compared with HPRT knockdown cells (MOI=1) (CEM cells [4]; CEM, same concentration of 6TG, day 3 to day 17): faster
- HPRT knockout population of CEM cells under treatment of 6TG (CEM cells [4]; CRISPR/Cas9 + sgRNA to HPRT nanocapsule, day 3 to 17, InDel % by T7E1 assay): increased
- Speed of selection of HPRT knockout K562 cells, higher dosage versus 300/600 nM of 6TG (K562 cells [5]; 900 nM 6TG compared with 300/600 nM, day 3 to 14): faster selection
- HPRT knockout population of K562 cells under treatment of 6TG (K562 cells [5]; CRISPR/Cas9 + sgRNA to HPRT nanocapsule, day 3 to 14, InDel % by T7E1 assay): increased
- GFP+ population of transduced K562 cells under treatment of 6TG (K562 cells [5]; HPRT knockdown vector with GFP, MOI=1/2/5, 6-TG in medium day 3 to day 14, flow, almost steady without 6-TG): increased
- Speed of 6TG selection on HPRT knockout cells compared with HPRT knockdown cells (MOI=1) (K562 cells [5]; K562, 300 nM 6TG, day 3 to day 14): much faster
- GFP+ population reached by positive selection with 6TG (K562 cells [3]; 300 nM 6TG, K562 transduced at dilution factor of 1024 one month earlier): more than 90%

Compound: COc1c(C)c2c(c(O)c1C/C=C(\C)CCC(=O)O)C(=O)OC2 [MPA, mycophenolic acid]
- GFP population of transduced cells under treatment (CEM cells [2]; 1 uM MPA): decreased
- HPRT knockout population of CEM cells under treatment (CEM cells [2]; 1 uM MPA): eliminated at a faster pace
- GFP population of transduced cells under treatment (CEM cells [2]; 10 uM MPA): decreased
- HPRT knockout population of CEM cells under treatment (CEM cells [2]; 10 uM MPA): eliminated at a faster pace
